Data from patent publication US20060270603A1, “Amidated parathyroid hormone fragments and uses thereof” (Unigene Laboratories Inc., priority 2004, published 2006).
No end group written: not given here.

How the values were obtained:
ovariectomized rats = assay: Efficacy testing of PTH analogs in ovariectomized rats; format: in vivo, Sprague Dawley rats; conditions: for osteocalcin (bone formation marker): plasma; for proximal tibia trabecular bone mineral density (BMD) by pQCT: Week 20
Procedure: To compare their effects in bone, amidated fragments of human parathyroid hormone (PTH) were evaluated in the ovariectomized rat model. Aged female Sprague Dawley rats were subject to bilateral ovariectomy or sham surgery. The animals were held untreated for a period of 8 weeks to allow the development of osteopenia. At that point, the ovariectomized animals were segregated into groups, and each group received daily subcutaneous injection of either vehicle or one of the following PTH fragments: PTH[1-30]NH2, PTH[1-31]NH2, PTH[1-32]NH2, PTH[1-33]NH2, and PTH[1-34]NH2 at a dose of 9.7 nmol/Kg. Treatment continued for a period of twelve weeks. Primary measures of analyses were 1) bone mineral density (BMD) of the spine (L3-L6) as determined by Dual Energy X-Ray Absorptiometry (DXA), 2) trabecular BMD of the proximal tibia as determined by peripheral Quantitative Computed Tomography (pQCT)and 3) evaluation of cortical bone in the distal tibia by PQCT. Secondary measures included urinary deoxypyridinoline (bone resorption marker), plasma osteocalcin (bone formation marker), histomorphometry of trabecular bone from the fourth lumbar vertebra (L4) and cortical bone from the distal tibia, microcomputed tomography (μCT), and bone strength tests of the spine and femur. Bone strength analysis was done on the femoral midshaft and a lumbar vertebral body.
In other experiments involving an ovariectomized rat model for osteoporosis, good efficacy is shown for the pharmaceutical agents of the invention. For example, the groups used in the study were: Sham, OVX (ovariectomized rats), OVX+PTH(1-30)NH2, OVX+PTH(1-31)NH2, OVX +PTH(1-32)NH2, OVX +PTH(1-33)NH2 and OVX +PTH(1-34)NH2.

ovariectomized rat model = conditions: cited from earlier work
adenylyl cyclase (AC) = conditions: cited from earlier work
[1] = 9.7 nmol/Kg daily subcutaneous injection, twelve weeks

PTH[1-30]NH2: amidated fragment of human parathyroid hormone (PTH), 30 amino acids (SVSEIQLMHNLGKHLNSMERVEWLRKKLQD-NH2; UniProt P01270 32-61, looked up, fragment)
increase in lumbar BMD (L3-L6) by DXA relative to the vehicle-treated ovariectomized animals (ovariectomized rats; [1]): 13% | increase in maximal load, compression testing of a lumbar vertebral body, relative to vehicle-treated ovariectomized animals (ovariectomized rats; [1]): 53% | effect on bone mass and strength (conclusion) (ovariectomized rats; common dose): gain in bone mass that was of a smaller magnitude than the other fragments | bone formation rate/bone surface, trabecular bone (ovariectomized rats; histomorphometry): anabolic effects of all hPTH amide fragments except hPTH(1-30) | trabecular area (trabecular bone mass) (ovariectomized rats; in contrast to OVX): increased trabecular bone mass in contrast to OVX except for the hPTH amide fragment (1-30) | anabolic effectiveness overall (percent trabecular area, bone volume/total volume, trabecular thickness and number) (ovariectomized rats; micro-CT and histomorphometry): less anabolically effective than the other fragments | osteocalcin (bone formation marker) (ovariectomized rats): significant increase in osteocalcin was observed for all PTH fragment treated groups except for PTH(1-30)NH2 | cortical analysis of the midshaft of the femur by pQCT (ovariectomized rats; rat, in vivo): all fragments to be effective except hPTH(1-30)NH2 | cortical bone mass, bone formation on periosteal and endosteal bone surfaces (anabolic effect) (ovariectomized rats; rat, in vivo): anabolic effect is weak | indices of cortical bone strength derived from pQCT (ovariectomized rats; rat, in vivo): no effect

PTH[1-32]NH2: C-terminal amidated human parathyroid hormone analog; hPTH-(1-32) sequence is SEQ ID NO:20 (SVSEIQLMHNLGKHLNSMERVEWLRKKLQDVH-NH2; listed as Homo sapiens)
proximal tibia trabecular bone mineral density (BMD) by pQCT (ovariectomized rats): continue to increase | percent porosity of the intracortex (ovariectomized rats; compared to OVX): significantly increased when compared to OVX except hPTH(1-32) amide | cortical bone mass, bone formation on periosteal and endosteal bone surfaces (anabolic effect) (ovariectomized rats; rat, in vivo): increased cortical bone mass

PTH[1-33]NH2: C-terminal amidated human parathyroid hormone analog; hPTH-(1-33) sequence is SEQ ID NO:21 (SVSEIQLMHNLGKHLNSMERVEWLRKKLQDVHN-NH2; listed as Homo sapiens)
proximal tibia trabecular bone mineral density (BMD) by pQCT (ovariectomized rats): did not continue to increase | bone formation rate/bone surface (BFR/BS) on the periosteal surface (ovariectomized rats; compared to OVX): increased BFR/BS | cortical bone mass, bone formation on periosteal and endosteal bone surfaces (anabolic effect) (ovariectomized rats; rat, in vivo): increased cortical bone mass

PTH[1-34]NH2: amidated fragment of human parathyroid hormone (PTH), 34 amino acids; hPTH-(1-34) sequence is SEQ ID NO:1
proximal tibia trabecular bone mineral density (BMD) by pQCT (ovariectomized rats): continue to increase | bone formation rate/bone surface (BFR/BS) on the periosteal surface (ovariectomized rats; compared to OVX): increased BFR/BS | osteocalcin (bone formation marker) (ovariectomized rats): significantly more increase than PTH amide fragments (1-31) and (1-32) | cortical bone mass, bone formation on periosteal and endosteal bone surfaces (anabolic effect) (ovariectomized rats; rat, in vivo): increased cortical bone mass

Ser Val Ser Glu Ile Gln Leu Met His Asn Leu Gly Lys His Leu Asn Ser Met Glu Arg Val Glu Trp Leu Arg Lys Lys Leu Gln Asp Val-NH2 [PTH[1-31]NH2]
proximal tibia trabecular bone mineral density (BMD) by pQCT (ovariectomized rats): continue to increase | bone formation rate/bone surface (BFR/BS) on the periosteal surface (ovariectomized rats; compared to OVX): increased BFR/BS | total area (ovariectomized rats; cortical bone): did not increase significantly except hPTH amide (1-31) | cortical bone mass, bone formation on periosteal and endosteal bone surfaces (anabolic effect) (ovariectomized rats; rat, in vivo): increased cortical bone mass | restoration of bone loss (ovariectomized rat model): fully active | AC-stimulating activity (adenylyl cyclase (AC)): has only AC-stimulating activity
